These results are taken from patent publication US9273003B2, “Methods of treating lymphoma and rheumatoid arthritis with cyclopentyl (2S)-cyclohexyl[({6-[3-(hydroxyamino)-3-oxopropyl]pyridin-3-yl}methyl)amino]acetate” (GlaxoSmithKline Intellectual Property Development Limited, priority 2006, dated 2016).

For one assay, the system named is U937 cells. The assay can be described thus: U937 cell inhibition assay (WST-1 cell viability). The class given is cell-based. Conditions: Homo sapiens, U-937; U937 cells; IC50 allocated to ranges; read-out: U937 activity. In outline: (§1)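 Log-phase cells seeded at 1000-2000/well, grown 24 h, then exposed to compound for 72-96 h before WST-1 viability readout. Eight concentrations (top 10 μM final, 3-fold steps), 6 replicates; % inhibition versus DMSO, IC50 by sigmoidal variable-slope fit.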
In general terms: Tetrazolium assays rely on reduction of a dye to a coloured formazan, in cell work by metabolically active cells.

Another assay concerns HUT78 cells. Put plainly: HUT cell inhibition assay (WST-1 cell viability). The class given is cell-based. The following applies: Homo sapiens; HUT78 cells; IC50 allocated to ranges; read-out: HUT activity. The method, boiled down:
as §1

The test system of another assay is HeLa cells. The assay can be described thus: HeLa cell inhibition assay (sulphorhodamine B cell viability). The class given is cell-based. The following applies: Homo sapiens, IC50 allocated to ranges. The protocol: HeLa cells growing in log phase were harvested and seeded at 1000 cells/well (200 μl final volume) into 96-well tissue culture plates. Following 24 h of cell growth cells were treated with compounds (final concentration of 20 μM). Plates were then re-incubated for a further 72 h before a sulphorhodamine B (SRB) cell viability assay was conducted according to the methodology described by Skehan et al, J. Natl. Canc. Inst., 1990, 82, 1107-1112.
Data were expressed as a percentage inhibition of the control, measured in the absence of inhibitor, as follows:— % inhibition=100−[(S^i/S^o)×100] where S^i is the signal in the presence of inhibitor and S^o is the signal in the presence of DMSO.
IC50 values were determined by non-linear regression analysis, after fitting the results of eight data points to the equation for sigmoidal dose response with variable slope (% activity against log concentration of Compound), using Graphpad Prism software.

In assay [1] the target is histone deacetylase activity (HeLa nuclear extract). Put plainly: HDAC fluorescent activity assay (Fluor de Lys, Biomol). The class given is biochemical. Conditions: IC50 allocated to ranges, read-out: HDAC activity. The method, boiled down:
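HeLa nuclear extract as HDAC source incubated with acetyl-lysine Fluor de Lys substrate ± inhibitor; developer then releases fluorophore from deacetylated substrate. Activity as % of vehicle control after no-enzyme background subtraction; IC50 from eight-point variable-slope sigmoidal fit.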

As to `O=C(/C=C/c1cccc(C(=O)N[C@H](C(=O)OC2CCCC2)C2CCCCC2)c1)NO` [Example 5, Cyclopentyl (2S)-cyclohexyl({3-[(1E)-3-(hydroxyamino)-3-oxoprop-1-en-1-yl]benzoyl}amino)acetate], the IC50 in the assay on U937 cells is 331 to 3300 nM; with HUT78 cells it was 331 to 3300 nM; with HeLa cells, 331 to 3300 nM; in assay [1], less than 100 nM.
Consider `O=C(/C=C/c1ccc(C(=O)N[C@H](C(=O)OC2CCCC2)C2CCCCC2)cc1)NO` [Example 7, Cyclopentyl (2S)-cyclohexyl({4-[(1E)-3-(hydroxyamino)-3-oxoprop-1-en-1-yl]benzoyl}amino)acetate], for which the IC50 in the assay on U937 cells was 331 to 3300 nM; with HUT78 cells, 331 to 3300 nM; in the assay on HeLa cells, greater than 3300 nM; in assay [1], 101 to 1000 nM.
Take `CC(C)C[C@@H](NCc1ccc(/C=C/C(=O)NO)cc1)C(=O)OC1CCCC1` [Example 18, Cyclopentyl N-{4-[(1E)-3-(hydroxyamino)-3-oxoprop-1-en-1-yl]benzyl}-D-leucinate]: the IC50 with U937 cells is 331 to 3300 nM; in the assay on HUT78 cells it was 331 to 3300 nM; in the assay on HeLa cells, greater than 3300 nM; in assay [1] it was 101 to 1000 nM.
For `CC(C)(C)OC[C@H](NCCCOc1ccc(/C=C/C(=O)NO)cc1)C(=O)OC1CCCC1` [Example 10, Cyclopentyl O-tert-butyl-N-(3-{4-[(1E)-3-(hydroxyamino)-3-oxoprop-1-en-1-yl]phenoxy}propyl)-L-serinate], the IC50 in the assay with U937 cells fell in the range of 331 to 3300 nM; with HUT78 cells, 331 to 3300 nM; in the assay on HeLa cells, 331 to 3300 nM; in assay [1], 101 to 1000 nM.
With `O=C(/C=C/c1ccc(CN[C@H](C(=O)OC2CC3CCC2C3)C2CCCCC2)cn1)NO` (stereo partly drawn) [Example 58, Bicyclo[2.2.1]hept-2-yl (2S)-cyclohexyl[({6-[(1E)-3-(hydroxyamino)-3-oxoprop-1-en-1-yl]pyridin-3-yl}methyl)amino]acetate], the IC50 in the assay on U937 cells is less than 330 nM; in the assay with HUT78 cells, less than 330 nM; in the assay on HeLa cells, 331 to 3300 nM; in assay [1], less than 100 nM.
Consider `O=C(/C=C/c1cccc(CN[C@H](C(=O)OC2CCCC2)C2CCCCC2)c1)NO` [Example 12, Cyclopentyl (2S)-cyclohexyl({3-[(1E)-3-(hydroxyamino)-3-oxoprop-1-en-1-yl]benzyl}amino)acetate], for which the IC50 was 331 to 3300 nM with U937 cells, 331 to 3300 nM in the assay on HUT78 cells, greater than 3300 nM in the assay with HeLa cells and 101 to 1000 nM in assay [1].
For `CC(C)C[C@H](NCc1ccc(CCC(=O)NO)cc1)C(=O)OC1Cc2ccccc2C1` [Example 37, 2,3-Dihydro-1H-inden-2-yl N-{4-[3-(hydroxyamino)-3-oxopropyl]benzyl}-L-leucinate], the IC50 is less than 330 nM with U937 cells, less than 330 nM with HUT78 cells, 331 to 3300 nM in the assay with HeLa cells and 101 to 1000 nM in assay [1].
In the case of `CC(C)(C)OC[C@H](NCc1ccc(CNCc2cccc(/C=C/C(=O)NO)c2)cc1)C(=O)OC1CCCC1` [Example 74, Cyclopentyl O-tert-butyl-N-{4-[({3-[(1E)-3-(hydroxyamino)-3-oxoprop-1-en-1-yl]benzyl}amino)methyl]benzyl}-L-serinate], the IC50 was less than 330 nM in the assay on U937 cells, 331 to 3300 nM in the assay on HUT78 cells and greater than 3300 nM in the assay on HeLa cells.
For the molecule `CC(C)C[C@H](NCCCOc1ccc(/C=C/C(=O)NO)cc1)C(=O)OC1CCCC1` [Example 11, Cyclopentyl N-(3-{4-[(1E)-3-(hydroxyamino)-3-oxoprop-1-en-1-yl]phenoxy}propyl)-L-leucinate], the IC50 with U937 cells was 331 to 3300 nM; with HUT78 cells, 331 to 3300 nM; in the assay on HeLa cells it was greater than 3300 nM; in assay [1], 101 to 1000 nM.
Regarding `O=C(/C=C/c1cccc(S(=O)(=O)N[C@H](C(=O)OC2CCCC2)c2ccccc2)c1)NO` [Example 1, cyclopentyl (2S)-[({3-[(1E)-3-(hydroxyamino)-3-oxoprop-1-en-1-yl]phenyl}sulfonyl)amino](phenyl)acetate], the IC50 was greater than 3300 nM with U937 cells, greater than 3300 nM with HUT78 cells, greater than 3300 nM in the assay on HeLa cells and 101 to 1000 nM in assay [1].
For `COC(=O)[C@H](Cc1c[nH]c2ccccc12)NCc1ccc(/C=C/C(=O)NO)cc1` [Example 29, Methyl N-{4-[(1E)-3-(hydroxyamino)-3-oxoprop-1-en-1-yl]benzyl}-L-tryptophanate], the IC50 with U937 cells, in the assay with HUT78 cells and in the assay with HeLa cells was 331 to 3300 nM throughout.
As for `O=C(/C=C/c1ccc(OCCCN[C@H](C(=O)OC2CCCC2)C2CCCCC2)cc1)NO` [Example 9, Cyclopentyl (2S)-cyclohexyl[(3-{4-[(1E)-3-(hydroxyamino)-3-oxoprop-1-en-1-yl]phenoxy}propyl)amino]acetate], the IC50 in the assay with U937 cells was greater than 3300 nM; in the assay on HUT78 cells, greater than 3300 nM; with HeLa cells, greater than 3300 nM; in assay [1] it was greater than 1000 nM.
Turning to `O=C(/C=C/c1ccc(CN[C@H](C(=O)OC2Cc3ccccc3C2)C2CCCCC2)cn1)NO` [Example 55, 2,3-Dihydro-1H-inden-2-yl (2S)-cyclohexyl[({6-[(1E)-3-(hydroxyamino)-3-oxoprop-1-en-1-yl]pyridin-3-yl}methyl)amino]acetate], the IC50 was less than 330 nM in the assay on U937 cells, less than 330 nM with HUT78 cells, 331 to 3300 nM with HeLa cells and less than 100 nM in assay [1].
For `CC(C)C[C@H](NS(=O)(=O)c1cccc(/C=C/C(=O)NO)c1)C(=O)OC1CCCC1` [Example 3, Cyclopentyl N-({3-[(1E)-3-(hydroxyamino)-3-oxoprop-1-en-1-yl]phenyl}sulfonyl)-L-leucinate], the IC50 in the assay on U937 cells is 331 to 3300 nM; with HUT78 cells it was 331 to 3300 nM; in the assay with HeLa cells, 331 to 3300 nM; in assay [1] it was less than 100 nM.
As for `CC1CCC(OC(=O)[C@@H](NCc2ccc(/C=C/C(=O)NO)cc2)C2CCCCC2)C1` (stereo partly drawn) [Example 28, 3-Methylcyclopentyl (2S)-cyclohexyl({4-[(1E)-3-(hydroxyamino)-3-oxoprop-1-en-1-yl]benzyl}amino)acetate], the IC50 in the assay with U937 cells is less than 330 nM; in the assay on HUT78 cells it was 331 to 3300 nM; with HeLa cells, 331 to 3300 nM; in assay [1], 101 to 1000 nM.
`CC(C)(C)OC[C@H](NC1CCN(Cc2ccc(/C=C/C(=O)NO)cc2)CC1)C(=O)OC1CCCC1` [Example 81, Cyclopentyl O-tert-butyl-N-(1-{4-[(1E)-3-(hydroxyamino)-3-oxoprop-1-en-1-yl]benzyl}piperidin-4-yl)-L-serinate]: the IC50 was less than 330 nM in the assay on U937 cells, less than 330 nM with HUT78 cells, 331 to 3300 nM in the assay on HeLa cells and 101 to 1000 nM in assay [1].
Turning to `O=C(/C=C/c1ccc(CN[C@H](C(=O)OC2CC3CCC2C3)C2CCCCC2)cc1)NO` (stereo partly drawn) [Example 26, Bicyclo[2.2.1]hept-2-yl (2S)-cyclohexyl({4-[(1E)-3-(hydroxyamino)-3-oxoprop-1-en-1-yl]benzyl}amino)acetate], the IC50 with U937 cells was less than 330 nM; with HUT78 cells, 331 to 3300 nM; with HeLa cells, 331 to 3300 nM; in assay [1], 101 to 1000 nM.
Regarding `CC(C)C[C@H](NC(=O)c1ccc(/C=C/C(=O)NO)cc1)C(=O)OC1CCCC1` [Example 8, Cyclopentyl N-{4-[(1E)-3-(hydroxyamino)-3-oxoprop-1-en-1-yl]benzoyl}-L-leucinate], the IC50 in the assay on U937 cells was 331 to 3300 nM; with HUT78 cells, 331 to 3300 nM; in the assay on HeLa cells it was 331 to 3300 nM; in assay [1], 101 to 1000 nM.
Turning to `CC1CCCC1OC(=O)[C@@H](NCc1ccc(/C=C/C(=O)NO)cc1)C1CCCCC1` (stereo partly drawn) [Example 27, 2-Methylcyclopentyl (2S)-cyclohexyl({4-[(1E)-3-(hydroxyamino)-3-oxoprop-1-en-1-yl]benzyl}amino)acetate], the IC50 is less than 330 nM with U937 cells, 331 to 3300 nM in the assay with HUT78 cells, 331 to 3300 nM with HeLa cells and 101 to 1000 nM in assay [1].
For the molecule `O=C(/C=C/c1ccc(CN[C@@H](C(=O)OC2CCCC2)C2CCCCC2)cc1)NO` [Example 19, Cyclopentyl (2R)-cyclohexyl({4-[(1E)-3-(hydroxyamino)-3-oxoprop-1-en-1-yl]benzyl}amino)acetate], the IC50 is 331 to 3300 nM in the assay on U937 cells, greater than 3300 nM in the assay on HUT78 cells, greater than 3300 nM in the assay with HeLa cells and 101 to 1000 nM in assay [1].
Regarding `O=C(/C=C/c1ccc(CN[C@H](C(=O)OCCN2CCOCC2)C2CCCCC2)cn1)NO` [Example 56, 2-Morpholin-4-ylethyl (2S)-cyclohexyl[({6-[(1E)-3-(hydroxyamino)-3-oxoprop-1-en-1-yl]pyridin-3-yl}methyl)amino]acetate], the IC50 was less than 330 nM in the assay with U937 cells, less than 330 nM in the assay with HUT78 cells, 331 to 3300 nM in the assay with HeLa cells and less than 100 nM in assay [1].
`CN(C)CCOC(=O)[C@@H](NCc1ccc(/C=C/C(=O)NO)nc1)C1CCCCC1` [Example 57, 2-(Dimethylamino)ethyl (2S)-cyclohexyl[({6-[(1E)-3-(hydroxyamino)-3-oxoprop-1-en-1-yl]pyridin-3-yl}methyl)amino]acetate]: the IC50 in the assay on U937 cells is less than 330 nM; in the assay with HUT78 cells, less than 330 nM; in the assay with HeLa cells it was greater than 3300 nM; in assay [1], less than 100 nM.
